Results from patent publication US7745646B2, “Bicyclic heteroaryl inhibitors of PDE4” (Kalypsys, Inc., priority 2006, dated 2010).

Target: T1, PDE4B (Homo sapiens, UniProt Q07343)
T1 construct: hex-histidine (His6) (N); made in house
Assay: Novel coupled PDE/AK bioluminescent assay, PDE4B inhibition
Type: biochemical
Details: PDE4B catalytic domain
Description: We developed a novel coupled PDE/AK bioluminescent high-throughput assay to measure the activity of phosphodiesterases. In the PDE/AK assay, the AMP produced from the hydrolysis of cAMP by phosphodiesterase is converted to adenosine diphosphate (ADP) by the phosphotransferase activity of adenylate kinase (also known as ADK or myokinase). Adenylate kinase will catalyze the conversion of 1 mole of AMP and 1 mole of ATP into 2 moles of ADP. Thus the conversion of AMP to ADP will result in the subsequent loss of ATP. The decrease in ATP concentration can be monitored as light output using luciferase in a reaction that requires ATP to produce light. The PDE/AK assay uses luciferase, which catalyzes the production of light from ATP present in the reaction mix. The amount of emitted light is inversely proportional to the level of AMP present in the reaction. Test compounds are incubated with the phosphodiesterases and phosphodiesterase inhibitors will decrease the rate of cAMP hydrolysis and decrease the subsequent production of AMP.
A novel coupled PDE/AK assay was utilized to measure the inhibitory activity of compounds on PDE isoforms. The catalytic domain of PDE4B was fused to an amino-terminus hex-histidine affinity tag and purified. PDE4B enzyme was incubated with compounds for 10 minutes. Cyclic AMP substrate, ATP and adenylate kinase were then added to the PDE enzyme mix and incubated for 45 minutes at room temperature. A commercial ATP detection assay, Perkin Elmer's easyLite ATP detection reagent, was then added to measure the relative amount of ATP present in the reaction. After 10 minute incubation, the luminescent signal was quantitated with either the Perkin Elmer Viewlux or Molecular Devices Acquest or Analyst.

T1 sequence (Q07343 330-659 limits assumed, species assumed): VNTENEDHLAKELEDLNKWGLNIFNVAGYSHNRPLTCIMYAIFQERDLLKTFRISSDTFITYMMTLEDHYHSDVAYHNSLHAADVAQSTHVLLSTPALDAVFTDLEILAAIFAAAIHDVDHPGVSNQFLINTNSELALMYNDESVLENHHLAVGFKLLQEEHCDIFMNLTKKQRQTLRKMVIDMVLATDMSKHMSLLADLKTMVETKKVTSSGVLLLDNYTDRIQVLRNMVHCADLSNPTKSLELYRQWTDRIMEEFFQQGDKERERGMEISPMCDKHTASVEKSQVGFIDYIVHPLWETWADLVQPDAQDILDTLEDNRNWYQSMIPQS

`COc1ccc2c(Nc3c(Cl)cccc3Cl)cc(=O)oc2c1OC1CCCC1` [Example 1, 8-(Cyclopentyloxy)-4-(2,6-dichlorophenylamino)-7-methoxy-2H-chromen-2-one] and `COc1ccc2c(Nc3c(C)cccc3Cl)cc(=O)oc2c1OC1CCCC1` [Example 18, 4-(2-Chloro-6-methylphenylamino)-8-(cyclopentyloxy)-7-methoxy-2H-chromen-2-one] cannot be ordered by IC50: under 1000 nM for the first, under 1000 nM for the second.

`COc1ccc2c(Cc3c(Cl)cncc3Cl)cc(=O)oc2c1OC1CCCC1` [Example 2, 8-(Cyclopentyloxy)-4-[(3,5-dichloropyridin-4-yl)methyl]-7-methoxy-2H-chromen-2-one] and `COc1ccc2c(Nc3c(Cl)cncc3Br)cc(=O)oc2c1OC1CCCC1` [Example 11, 4-(3-Bromo-5-chloropyridin-4-ylamino)-8-(cyclopentyloxy)-7-methoxy-2H-chromen-2-one] cannot be ordered by IC50: under 1000 nM for the first, under 1000 nM for the second.

Going from `COc1ccc2c(Nc3c(Cl)cncc3Cl)c(O)c(=O)oc2c1OC1CCCC1` [Example 4, 8-(Cyclopentyloxy)-4-(3,5-dichloropyridin-4-ylamino)-3-hydroxy-7-methoxy-2H-chromen-2-one] to `COc1ccc2c(Nc3c(Cl)cncc3Cl)c(C)c(=O)oc2c1OC1CCCC1` [Example 13, 8-(Cyclopentyloxy)-4-(3,5-dichloropyridin-4-ylamino)-7-methoxy-3-methyl-2H-chromen-2-one], the IC50 falls from over 1000 nM to under 1000 nM. The second is the more potent here.

`CCc1c(Nc2c(Cl)cncc2Cl)c2ccc(OC)c(OCC3CC3)c2oc1=O` [Example 6, 8-(Cyclopropylmethoxy)-4-(3,5-dichloropyridin-4-ylamino)-3-ethyl-7-methoxy-2H-chromen-2-one] and `COc1ccc2c(Nc3c(Cl)cncc3Cl)cc(=O)oc2c1OCC1CCCC1` [Example 40, 8-(Cyclopentylmethoxy)-4-(3,5-dichloropyridin-4-ylamino)-7-methoxy-2H-chromen-2-one] cannot be ordered by IC50: under 1000 nM for the first, under 1000 nM for the second.

`COc1ccc2c(NCC(=O)O)cc(=O)oc2c1OC1CCCC1` [Example 7, 2-(8-(Cyclopentyloxy)-7-methoxy-2-oxo-2H-chromen-4-ylamino)acetic acid] and `COc1ccc2c(NCC(N)=O)cc(=O)oc2c1OC1CCCC1` [Example 9, 2-(8-(Cyclopentyloxy)-7-methoxy-2-oxo-2H-chromen-4-ylamino)acetamide] cannot be ordered by IC50: over 1000 nM for the first, over 1000 nM for the second.

First: CCOC(=O)CNc1cc(=O)oc2c(OC3CCCC3)c(OC)ccc12 [Example 8, Ethyl 2-(8-(cyclopentyloxy)-7-methoxy-2-oxo-2H-chromen-4-ylamino)acetate]
Second: COc1ccc2c(NCC(=O)NO)cc(=O)oc2c1OC1CCCC1 [Example 10, 2-(8-(Cyclopentyloxy)-7-methoxy-2-oxo-2H-chromen-4-ylamino)-N-hydroxyacetamide]
The IC50 of the first is higher: over 1000 nM for the first, under 1000 nM for the second.

Compared with `COc1ccc2c(Nc3c(C)cncc3C)cc(=O)oc2c1OC1CCCC1` [Example 12, 8-(Cyclopentyloxy)-4-(3,5-dimethylpyridin-4-ylamino)-7-methoxy-2H-chromen-2-one], `COc1ccc2c(Nc3c(Cl)cncc3C(=O)O)cc(=O)oc2c1OC1CCCC1` [Example 22, 5-Chloro-4-(8-(cyclopentyloxy)-7-methoxy-2-oxo-2H-chromen-4-ylamino)nicotinic acid] is higher in IC50: under 1000 nM for the first, over 1000 nM for the second. The first is the more potent here.

`COc1ccc2c(Nc3c(Cl)cncc3Cl)c(F)c(=O)oc2c1OC1CCCC1` [Example 14, 8-(Cyclopentyloxy)-4-(3,5-dichloropyridin-4-ylamino)-3-fluoro-7-methoxy-2H-chromen-2-one] and `C=C(OCC)c1cncc(Cl)c1Nc1cc(=O)oc2c(OC3CCCC3)c(OC)ccc12` [Example 15, 4-(3-Chloro-5-(1-ethoxyvinyl)pyridin-4-ylamino)-8-(cyclopentyloxy)-7-methoxy-2H-chromen-2-one] cannot be ordered by IC50: under 1000 nM for the first, under 1000 nM for the second.

`COc1ccc2c(Nc3c(Cl)ccc(C)c3Cl)cc(=O)oc2c1OC1CCCC1` [Example 16, 8-(Cyclopentyloxy)-4-(2,6-dichloro-3-methylphenylamino)-7-methoxy-2H-chromen-2-one] and `COC(=O)c1cccc(Cl)c1Nc1cc(=O)oc2c(OC3CCCC3)c(OC)ccc12` [Example 20, Methyl 3-chloro-2-(8-(cyclopentyloxy)-7-methoxy-2-oxo-2H-chromen-4-ylamino)benzoate] cannot be ordered by IC50: over 1000 nM for the first, over 1000 nM for the second.

`COc1ccc2c(Nc3c(Cl)cccc3C(F)(F)F)cc(=O)oc2c1OC1CCCC1` [Example 17, 4-(2-Chloro-6-(trifluoromethyl)phenylamino)-8-(cyclopentyloxy)-7-methoxy-2H-chromen-2-one] and `COc1ccc2c(Nc3ccccc3Cl)cc(=O)oc2c1OC1CCCC1` [Example 19, 4-(2-Chlorophenylamino)-8-(cyclopentyloxy)-7-methoxy-2H-chromen-2-one] cannot be ordered by IC50: under 1000 nM for the first, under 1000 nM for the second.

`COc1ccc2c(Nc3c(Cl)cncc3Cl)cc(=O)oc2c1OC(C)C` [Example 21, 4-(3,5-Dichloropyridin-4-ylamino)-8-isopropoxy-7-methoxy-2H-chromen-2-one] and `COc1ccc2c(Nc3c(Cl)cncc3Cl)cc(=O)oc2c1OCC(C)C` [Example 23, 4-(3,5-Dichloropyridin-4-ylamino)-8-isobutoxy-7-methoxy-2H-chromen-2-one] cannot be ordered by IC50: under 1000 nM for the first, under 1000 nM for the second.

`COc1ccc2c(Nc3ccccc3Cl)cc(=O)oc2c1OCC1CC1` [Example 24, 4-(2-Chlorophenylamino)-8-(cyclopropylmethoxy)-7-methoxy-2H-chromen-2-one] and `COc1ccc2c(Nc3c(Cl)cncc3Cl)cc(=O)oc2c1OCc1ccccc1` [Example 26, 8-(Benzyloxy)-4-(3,5-dichloropyridin-4-ylamino)-7-methoxy-2H-chromen-2-one] cannot be ordered by IC50: under 1000 nM for the first, under 1000 nM for the second.

`COc1ccc2c(Nc3c(Cl)cncc3Cl)cc(=O)oc2c1OCCCCBr` [Example 25, 8-(4-Bromobutoxy)-4-(3,5-dichloropyridin-4-ylamino)-7-methoxy-2H-chromen-2-one] and `COc1ccc2c(Nc3c(Cl)cncc3Cl)cc(=O)oc2c1OCCCCCBr` [Example 28, 8-(5-Bromopentyloxy)-4-(3,5-dichloropyridin-4-ylamino)-7-methoxy-2H-chromen-2-one] cannot be ordered by IC50: under 1000 nM for the first, under 1000 nM for the second.

`COc1ccc2c(Nc3c(Cl)cncc3Cl)cc(=O)oc2c1OCCCCN(C)C` [Example 27, 4-(3,5-Dichloropyridin-4-ylamino)-8-(4-(dimethylamino)butoxy)-7-methoxy-2H-chromen-2-one] and `COc1ccc2c(Nc3c(Cl)cncc3Cl)cc(=O)oc2c1OCCCCCN(C)C` [Example 31, 4-(3,5-Dichloropyridin-4-ylamino)-8-(5-(dimethylamino)pentyloxy)-7-methoxy-2H-chromen-2-one] cannot be ordered by IC50: under 1000 nM for the first, under 1000 nM for the second.

`COc1ccc2c(Nc3c(Cl)cncc3Cl)cc(=O)oc2c1O` [Example 29, 4-(3,5-Dichloropyridin-4-ylamino)-8-hydroxy-7-methoxy-2H-chromen-2-one] and `COc1ccc2c(Nc3c(Cl)cncc3Cl)cc(=O)oc2c1OCCCBr` [Example 30, 8-(3-Bromopropoxy)-4-(3,5-dichloropyridin-4-ylamino)-7-methoxy-2H-chromen-2-one] cannot be ordered by IC50: under 1000 nM for the first, under 1000 nM for the second.

`COc1ccc2c(Nc3c(Cl)cncc3Cl)cc(=O)oc2c1OCCCN(C)C` [Example 32, 4-(3,5-Dichloropyridin-4-ylamino)-8-(3-(dimethylamino)propoxy)-7-methoxy-2H-chromen-2-one] and `COc1ccc2c(Nc3c(Cl)cncc3Cl)cc(=O)oc2c1OCCCC(=O)O` [Example 42, 4-(4-(3,5-Dichloropyridin-4-ylamino)-7-methoxy-2-oxo-2H-chromen-8-yloxy)butanoic acid] cannot be ordered by IC50: under 1000 nM for the first, under 1000 nM for the second.

`COc1ccc2c(Nc3c(Cl)cncc3Cl)cc(=O)oc2c1OCc1ccccc1[N+](=O)[O-]` [Example 33, 4-(3,5-Dichloropyridin-4-ylamino)-7-methoxy-8-(2-nitrobenzyloxy)-2H-chromen-2-one] and `COc1ccc2c(Nc3c(Cl)cncc3Cl)cc(=O)oc2c1OCc1cccc([N+](=O)[O-])c1` [Example 34, 4-(3,5-Dichloropyridin-4-ylamino)-7-methoxy-8-(3-nitrobenzyloxy)-2H-chromen-2-one] cannot be ordered by IC50: under 1000 nM for the first, under 1000 nM for the second.

`COc1ccc2c(Nc3c(Cl)cncc3Cl)cc(=O)oc2c1OCc1ccc([N+](=O)[O-])cc1` [Example 35, 4-(3,5-Dichloropyridin-4-ylamino)-7-methoxy-8-(4-nitrobenzyloxy)-2H-chromen-2-one] and `COc1ccc2c(Nc3c(Cl)cncc3Cl)cc(=O)oc2c1OCCc1ccccc1` [Example 41, 4-(3,5-Dichloropyridin-4-ylamino)-7-methoxy-8-phenethoxy-2H-chromen-2-one] cannot be ordered by IC50: under 1000 nM for the first, under 1000 nM for the second.

`CCOC(=O)CCCOc1c(OC)ccc2c(Nc3c(Cl)cncc3Cl)cc(=O)oc12` [Example 36, Ethyl 4-(4-(3,5-dichloropyridin-4-ylamino)-7-methoxy-2-oxo-2H-chromen-8-yloxy)butanoate] and `CCOC(=O)CCCCOc1c(OC)ccc2c(Nc3c(Cl)cncc3Cl)cc(=O)oc12` [Example 37, Ethyl 5-(4-(3,5-dichloropyridin-4-ylamino)-7-methoxy-2-oxo-2H-chromen-8-yloxy)pentanoate] cannot be ordered by IC50: under 1000 nM for the first, under 1000 nM for the second.

`CCOC(=O)CCCCCOc1c(OC)ccc2c(Nc3c(Cl)cncc3Cl)cc(=O)oc12` [Example 38, Ethyl 6-(4-(3,5-dichloropyridin-4-ylamino)-7-methoxy-2-oxo-2H-chromen-8-yloxy)hexanoate] and `COc1ccc2c(Nc3c(Cl)cncc3Cl)cc(=O)oc2c1OCCCCCC(=O)O` [Example 44, 6-(4-(3,5-Dichloropyridin-4-ylamino)-7-methoxy-2-oxo-2H-chromen-8-yloxy)hexanoic acid] cannot be ordered by IC50: under 1000 nM for the first, under 1000 nM for the second.

Going from `COc1ccc2c(N[C@H]3CC[C@@H](C(=O)O)CC3)cc(=O)oc2c1OC1CCCC1` [Example 39, cis-4-(8-(Cyclopentyloxy)-7-methoxy-2-oxo-2H-chromen-4-ylamino)cyclohexanecarboxylic acid] to `COc1ccc2c(Nc3c(Cl)cncc3Cl)cc(=O)oc2c1OCCCCC(=O)O` [Example 43, 5-(4-(3,5-Dichloropyridin-4-ylamino)-7-methoxy-2-oxo-2H-chromen-8-yloxy)pentanoic acid], the IC50 falls from over 1000 nM to under 1000 nM. The second is the more potent here.
